Measured values reported in patent US20250302862A1, “SMALL RNA DRUG FOR INHIBITING ACTIVITY OF CANCER CELLS” (Institute of Basic Medical Sciences Chinese Academy of …, priority 2022, published 2025).

Assays:
[1] = system: breast cancer MCF7 cells; assay: Concentration-dependent proliferation inhibition, MTS; type: cell-based, human; conditions: gradient 0.01-100 noml/L, MTS after 48 h
Procedure: (§1) 1) Breast cancer MCF7 cells, breast cancer MDA-MB-231 cells, gastric cancer AGS cells, pancreatic cancer HS766T cells, pancreatic cancer ASPC-1 cells, and prostate cancer PC-3 cells with a cell density of more than 90% in 10 cm^2 plates were plated in 96-well according to the cell growth rate. Transfection was performed after 12 h, and the groups (3 wells per group) were divided as follows: • blank control group: 20 uL of opti-MEM • negative control group (NC group) and experimental group: • A. 10 uL of opti-MEM and 0.2 uL of iMax were mixed well for 5 min • B. 10 uL of opti-MEM and small RNA were mixed well (the concentration gradient of experimental group was set as: 0.01 noml/L, 0.03 noml/L, 0.1 noml/L, 0.39 noml/L, 0.78 noml/L, 1.56 noml/L, 3.125 noml/L, 6.25 noml/L, 12.5 noml/L, 25 noml/L, 50 noml/L, 100 noml/L; the final concentration of sRNA in NC group was 100 noml/L) • C. solution A and solution B were mixed well and let stand for 15 min, and then was added at a 20 uL system • Note: 100 uL of nuclease-free water was added to 2 nmol of small RNA dry powder for dissolution at a storage concentration of 20 umol/L
(§2) 2) Detection of cell viability: MTS detection was performed after 48 h.
(§3) Formulation of MTS detection solution was as follows: opti-MEM:MTS A solution:MTS B solution=100:20:1. After removing the supernatant, 100 uL of MTS detection solution was added to each well and incubated for 0.5-2 h. Absorbance values at wavelengths of 490 nm and 630 nm were measured in a microplate reader.
as §1, with “dishes” for “plates”, “96-well plates” for “96-well”

[2] = system: gastric cancer AGS cells; assay: as above; type: cell-based, human; conditions: gradient 0.01-100 noml/L, MTS after 48 h
Procedure: as §1, §2, §3
as §1, with “dishes” for “plates”, “96-well plates” for “96-well”

[3] = system: pancreatic cancer ASPC-1 cells; assay: as above; type: cell-based, human; conditions: gradient 0.01-100 noml/L, MTS after 48 h
Procedure: as §1, §2, §3
as §1, with “dishes” for “plates”, “96-well plates” for “96-well”

[4] = system: pancreatic cancer HS766T cells; assay: as above; type: cell-based, human; conditions: gradient 0.01-100 noml/L, MTS after 48 h
Procedure: as §1, §2, §3
as §1, with “dishes” for “plates”, “96-well plates” for “96-well”

[5] = system: prostate cancer PC-3 cells; assay: as above; type: cell-based, human; conditions: gradient 0.01-100 noml/L, MTS after 48 h
Procedure: as §1, §2, §3
as §1, with “dishes” for “plates”, “96-well plates” for “96-well”

[6] = system: breast cancer MDA-MB-231 cells; assay: as above; type: cell-based; conditions: gradient 0.01-100 noml/L, MTS after 48 h
Procedure: as §1, §2
Formulation of MTS detection solution was as follows: opti-MEM:MTS A solution:MTS B solution=100:20:1. […] Absorbance values at wavelengths of 490 nm and 630 nm were measured in a microplate reader. […]

[7] = system: breast cancer MCF7 cells; assay: Apoptosis detection (Annexin V / PI); type: cell-based, human; conditions: 100 nmol/L, 48 h
Procedure: (§4) 1) MCF-7 cells with a cell density of more than 90% in 10 cm^2 dishes were plated in 12-well plates according to the cell growth rate, and transfected after 12 h, and the groups were divided as follows: • blank control group (4 wells): 200 uL of opti-MEM per well • negative control group (NC group) and experimental group (3 wells each): • A. 100 uL of opti-MEM and 2 uL of iMax were mixed well for 5 min • B. 100 uL of opti-MEM and 5 uL of small RNA (final concentration 100 nmol/L) were mixed well • C. solution A and solution B were mixed well and let stand for 15 min, and then was added to each well at a 200 uL system • Note: 100 uL of nuclease-free water was added to 2 nmol of small RNA dry powder for dissolution at a storage concentration of 20 umol/L
The supernatant and cells were collected after 48 h and washed twice with pre-chilled PBS. The 4 tubes of cells in the blank control group were added respectively with: (1) 200 uL of 1× binding buffer; (2) 200 uL of 1× binding buffer and 5 uL of Annexin V stain; (3) 200 uL of 1× binding buffer and 5 uL of PI stain; (4) 200 uL of 1× binding buffer, 5 uL of Annexin V stain and 5 uL of PI stain. […] The live cell population and the position of quadrant gate were selected according to the blank control group, and then the apoptosis of the NC group and the experimental group was detected. […]

[8] = system: prostate cancer PC-3 cells; assay: Apoptosis detection (Annexin V / PI); type: cell-based, human; conditions: 100 nmol/L, 48 h
Procedure: as §4, with “PC-3” for “MCF-7”, “each): the system of each well was as follows” for “each):”
The supernatant and cells were collected after 48 h and washed twice with pre-chilled PBS. The 4 tubes of cells in the blank control group were added respectively with: (1) 200 uL of 1× binding buffer; (2) 200 uL of 1× binding buffer and 5 uL of Annexin V stain; (3) 200 uL of 1× binding buffer and 5 uL of PI stain; (4) 200 uL of 1× binding buffer, 5 uL of Annexin V stain and 5 uL of PI stain. […] The live cell population and the position of quadrant gate were selected according to the blank control group, and then the apoptosis of the NC group and the experimental group was detected.

Substance | proliferation-inhibiting function (cell activity, MTS) [1] | proliferation-inhibiting function (cell activity, MTS) [2] | proliferation-inhibiting function (cell activity, MTS) [3] | proliferation-inhibiting function (cell activity, MTS) [4] | proliferation-inhibiting function (cell activity, MTS) [5] | proliferation-inhibiting function (cell activity, MTS) [6] | apoptosis [7] | apoptosis [8]
MDM-sRNA-39: small RNA derived from Maytenus hookeri, sequence GGGAUUGUAGUUCAAUUGGUCAGAGCACC (listed as RNA, chemistry not given here) | concentration-dependent | concentration-dependent | concentration-dependent | concentration-dependent | concentration-dependent | concentration-dependent | promotes | promotes
MDM-sRNA-163: small RNA derived from Maytenus hookeri, sequence UGACUCUAGUCCGACUUUGUGAAAUGACU (listed as RNA, chemistry not given here) | concentration-dependent | concentration-dependent | concentration-dependent | concentration-dependent | concentration-dependent | concentration-dependent | promotes | promotes
